Measurements: US20090137572A1, “2-substituted-4-heteroaryl-pyrimidines useful for the treatment of proliferative disorders” (priority 2004, published 2009)

How the values were obtained:
CDK2-cycline E = CDK2-cycline E (Homo sapiens, UniProt P24941); experiment: Kinase assay (radioactive phosphate incorporation), CDK2-cyclin E; format: biochemical; details: read-out: Kinase Inhibition pIC50 CDK2-cycline E (converted)
Procedure, shortened: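 Radiometric filter-binding format: recombinant kinase + substrate, pH 7.4 MOPS buffer with EGTA, DTT, vanadate; 100 μM ATP/[γ-32P]-ATP, 15 mM MgCl2; 30° C; stopped on ice, P81 or GF/C filtration, scintillation read.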

Aurora A kinase = biological target: T1, Aurora A kinase (Homo sapiens, UniProt O14965); experiment: Aurora-A (human) kinase assay (Kemptide substrate); format: biochemical; details: pIC50 is -log(IC50, M); 15 μM ATP; read-out: Kinase Inhibition pIC50 Aurora A kinase (converted)
T1 construct: purchased
T1 sequence (O14965 1-403): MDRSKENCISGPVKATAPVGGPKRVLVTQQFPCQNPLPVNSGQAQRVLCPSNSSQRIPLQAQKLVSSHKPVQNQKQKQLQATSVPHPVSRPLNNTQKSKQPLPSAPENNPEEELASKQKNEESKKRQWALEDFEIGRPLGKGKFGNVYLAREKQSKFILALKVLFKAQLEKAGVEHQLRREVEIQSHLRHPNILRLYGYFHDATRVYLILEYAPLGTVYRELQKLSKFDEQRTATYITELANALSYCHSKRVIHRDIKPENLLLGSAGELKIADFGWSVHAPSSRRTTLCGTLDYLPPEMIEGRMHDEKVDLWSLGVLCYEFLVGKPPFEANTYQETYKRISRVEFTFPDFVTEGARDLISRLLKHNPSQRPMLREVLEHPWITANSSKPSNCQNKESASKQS
Procedure, shortened: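 Radiometric filter-binding assay: commercial aurora-A kinase (5-10 ng) with 200 μM Kemptide in MOPS/EDTA pH 7.0, started with 10 mM Mg acetate and 15 μM ATP plus [γ-33P]-ATP. Incubated 40 min at room temperature, stopped with phosphoric acid, incorporated 33P counted by scintillation.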

Compound | melting point | IC50 (CDK2-cycline E) | IC50 (Aurora A kinase)
Cc1nc(C)c(-c2ccnc(Nc3cccc(CN)c3)n2)s1 [Compound 90, (3-Aminomethyl-phenyl)-[4-(2,4-dimethyl-thiazol-5-yl)-pyrimidin-2-yl]-amine] | 183 to 184 °C | 398 nM | –
CCc1cc(-c2nc(C)c(-c3ccnc(Nc4ccc(S(=O)(=O)NCCO)cc4)n3)s2)ccn1 [Compound 102, 4-{4-[2-(2-Ethyl-pyridin-4-yl)-4-methyl-thiazol-5-yl]-pyrimidin-2-ylamino}-N-(2-hydroxy-ethyl)-benzenesulfonamide] | 233 to 234 °C | – | 63.1 nM
CCc1cc(-c2nc(C)c(-c3ccnc(Nc4ccc(CNC(C)=O)cc4)n3)s2)ccn1 [Compound 104, N-(4-{4-[2-(2-Ethyl-pyridin-4-yl)-4-methyl-thiazol-5-yl]-pyrimidin-2-ylamino}-benzyl)-acetamide] | 224 to 225 °C | – | 63.1 nM
CC(=O)NCc1cccc(Nc2nccc(-c3sc(-c4ccc(C)nc4)nc3C)n2)c1 [Compound 108, N-(3-{4-[4-Methyl-2-(6-methyl-pyridin-3-yl)-thiazol-5-yl]-pyrimidin-2-ylamino}-benzyl)-acetamide] | 227 to 229 °C | – | 2510 nM
CC(=O)NCc1cccc(Nc2nccc(-c3sc(-c4ncc(C(F)(F)F)cc4Cl)nc3C)n2)c1 [Compound 109, N-(3-{4-[2-(3-Chloro-5-trifluoromethyl-pyridin-2-yl)-4-methyl-thiazol-5-yl]-pyrimidin-2-ylamino}-benzyl)-acetamide] | 217 to 218 °C | – | 631 nM
COCCNS(=O)(=O)c1ccc(Nc2nccc(-c3sc(-c4cccnc4)nc3C)n2)cc1 [Compound 110, N-(2-Methoxy-ethyl)-4-[4-(4-methyl-2-pyridin-3-yl-thiazol-5-yl)-pyrimidin-2-ylamino]-benzenesulfonamide] | 252 to 254 °C | – | 1000 nM
CC(=O)NCc1cccc(Nc2nccc(-c3sc(NCc4ccccc4)nc3C)n2)c1 [Compound 118, N-{3-[4-(2-Benzylamino-4-methyl-thiazol-5-yl)-pyrimidin-2-ylamino]-benzyl}-acetamide] | 181 to 183 °C | – | 501 nM
Cc1nc(N(C)c2cc(Cl)cc(Cl)c2)sc1-c1ccnc(Nc2ccc(N3CCOCC3)cc2)n1 [Compound 123, (4-{2-[(3,5-Dichloro-phenyl)-methyl-amino]-4-methyl-thiazol-5-yl}-pyrimidin-2-yl)-(4-morpholin-4-yl-phenyl)-amine] | 216 to 218 °C | – | 50.1 nM
Cc1nc(N(C)c2ccc(Cl)cc2)sc1-c1ccnc(Nc2ccc(N3CCOCC3)cc2)n1 [Compound 124, (4-{2-[(4-Chloro-phenyl)-methyl-amino]-4-methyl-thiazol-5-yl}-pyrimidin-2-yl)-(4-morpholin-4-yl-phenyl)-amine] | 245 to 246 °C | – | 200 nM
CC(=O)NCc1cccc(Nc2nccc(-c3sc(N(C)c4cc(Cl)cc(Cl)c4)nc3C)n2)c1 [Compound 125, N-[3-(4-{2-[(3,5-Dichloro-phenyl)-methyl-amino]-4-methyl-thiazol-5-yl}-pyrimidin-2-ylamino)-benzyl]-acetamide] | 213 to 214 °C | – | 2510 nM
Cc1nc(-c2cccnc2)sc1-c1ccnc(Nc2cc(Cl)c(N3CCOCC3)c(Cl)c2)n1 [Compound 126, (3,5-Dichloro-4-morpholin-4-yl-phenyl)-[4-(4-methyl-2-pyridin-3-yl-thiazol-5-yl)-pyrimidin-2-yl]-amine] | 276 to 278 °C | – | 251 nM
Cc1nc(N(C)c2cc(Cl)cc(Cl)c2)sc1-c1ccnc(Nc2ccc(N3CCOCC3)c(Cl)c2)n1 [Compound 128, (3-Chloro-4-morpholin-4-yl-phenyl)-(4-{2-[(3,5-dichloro-phenyl)-methyl-amino]-4-methyl-thiazol-5-yl}-pyrimidin-2-yl)-amine] | 224 to 225 °C | – | 100 nM
CC(=O)NCc1cccc(Nc2nccc(-c3sc(-c4cccs4)nc3C)n2)c1 [Compound 130, N-{3-[4-(4-Methyl-2-thiophen-2-yl-thiazol-5-yl)-pyrimidin-2-ylamino]-benzyl}-acetamide] | 223 to 225 °C | 794 nM | 158 nM
Cc1nc(-c2nc(C)c(-c3ccnc(Nc4ccc(N5CCOCC5)cc4)n3)s2)cs1 [Compound 135, [4-(4,2′-Dimethyl-[2,4′]bithiazolyl-5-yl)-pyrimidin-2-yl]-(4-morpholin-4-yl-phenyl)-amine] | 262 to 263 °C | – | 1260 nM
CC(=O)N1CCN(c2ccc(Nc3nccc(-c4sc(-c5ccc(N6CCOCC6)cc5)nc4C)n3)cc2)CC1 [Compound 148, 1-[4-(4-{4-[4-Methyl-2-(4-morpholin-4-yl-phenyl)-thiazol-5-yl]-pyrimidin-2-ylamino}-phenyl)-piperazin-1-yl]-ethanone] | 250 to 252 °C | – | 316 nM
COc1cc(Nc2nccc(-c3sc(NCCc4ccccc4)nc3C)n2)cc(OC)c1 [Compound 159, (3,5-Dimethoxy-phenyl)-[4-(4-methyl-2-phenethylamino-thiazol-5-yl)-pyrimidin-2-yl]-amine] | 201 to 202 °C | – | 794 nM
CCNc1nc(C)c(-c2ccnc(Nc3cc(OC)cc(OC)c3)n2)s1 [Compound 160, (3,5-Dimethoxy-phenyl)-[4-(2-ethylamino-4-methyl-thiazol-5-yl)-pyrimidin-2-yl]-amine] | 235 to 237 °C | – | 794 nM
Cc1nc(Nc2ccccc2)sc1-c1ccnc(Nc2ccc(N3CCOCC3)cc2)n1 [Compound 167, [4-(4-Methyl-2-phenylamino-thiazol-5-yl)-pyrimidin-2-yl]-(4-morpholin-4-yl-phenyl)-amine] | 290 to 291 °C | – | –
COc1cc(Nc2nccc(-c3sc(Nc4ccccc4)nc3C)n2)cc(OC)c1 [Compound 171, (3,5-Dimethoxy-phenyl)-[4-(4-methyl-2-phenylamino-thiazol-5-yl)-pyrimidin-2-yl]-amine] | 191 to 194 °C | – | –
CC(=O)N1CCN(c2ccc(Nc3nccc(-c4sc(Nc5ccccc5)nc4C)n3)cc2)CC1 [Compound 172, 1-(4-{4-[4-(4-Methyl-2-phenylamino-thiazol-5-yl)-pyrimidin-2-ylamino]-phenyl}-piperazin-1-yl)-ethanone] | 245 to 246 °C | – | 251 nM
Cc1nc(Nc2ccccc2)sc1-c1ccnc(Nc2ccc(N3CCN(Cc4ccccc4)CC3)cc2)n1 [Compound 176, [4-(4-Benzyl-piperazin-1-yl)-phenyl]-[4-(4-methyl-2-phenylamino-thiazol-5-yl)-pyrimidin-2-yl]-amine] | 227 to 229 °C | – | 6310 nM
Cc1nc(-c2cccnc2)sc1-c1ccnc(Nc2ccc3c(c2)OCO3)n1 [Compound 177, Benzo[1,3]dioxol-5-yl-[4-(4-methyl-2-pyridin-3-yl-thiazol-5-yl)-pyrimidin-2-yl]-amine] | 187 to 188 °C | – | 2000 nM
Cc1nc(-c2cccnc2)sc1-c1ccnc(Nc2ccc(N3CCCC3)cc2)n1 [Compound 198, [4-(4-Methyl-2-pyridin-3-yl-thiazol-5-yl)-pyrimidin-2-yl]-(4-pyrrolidin-1-yl-phenyl)-amine] | 212 to 214 °C | – | 2000 nM
Cc1nc(C)c(-c2ccnc(Nc3ccc(N4CCCC4)cc3)n2)s1 [Compound 199, [4-(2,4-Dimethyl-thiazol-5-yl)-pyrimidin-2-yl]-(4-pyrrolidin-1-yl-phenyl)-amine] | 192 to 193 °C | – | 631 nM
Cc1nc(-c2cccnc2)sc1-c1ccnc(Nc2ccc(N3CCSCC3)cc2)n1 [Compound 204, [4-(4-Methyl-2-pyridin-3-yl-thiazol-5-yl)-pyrimidin-2-yl]-(4-thiomorpholin-4-yl-phenyl)-amine] | 191 to 193 °C | – | 501 nM
Cc1nc(C)c(-c2ccnc(Nc3ccc(N4CCCCC4)c(C)c3)n2)s1 [Compound 205, [4-(2,4-Dimethyl-thiazol-5-yl)-pyrimidin-2-yl]-(3-methyl-4-piperidin-1-yl-phenyl)-amine] | 159 to 160 °C | – | 398 nM
CCNc1nc(C)c(-c2ccnc(Nc3ccc(N4CCCCC4)c(C)c3)n2)s1 [Compound 207, [4-(2-Ethylamino-4-methyl-thiazol-5-yl)-pyrimidin-2-yl]-(3-methyl-4-piperidin-1-yl-phenyl)-amine] | 213 to 214 °C | – | 501 nM
Cc1cc(Nc2nccc(-c3sc(-c4cccnc4)nc3C)n2)ccc1N1CCCCC1 [Compound 208, (3-Methyl-4-piperidin-1-yl-phenyl)-[4-(4-methyl-2-pyridin-3-yl-thiazol-5-yl)-pyrimidin-2-yl]-amine] | 200 to 201 °C | – | 1000 nM
